Measurements published in ChEMBL document CHEMBL5500373, “Lead optimization based design, synthesis, and pharmacological evaluation of quinazoline derivatives as multi-targeting agents for Alzheimer's disease treatment” (Eur J Med Chem, 2024).
The source made the active and inactive calls. The calls are words filed in the database; no cut-off is given here.

Key:
Acetylcholinesterase = Acetylcholinesterase (Homo sapiens, UniProt P22303); experiment: Inhibition of human erythrocyte AChE using acetylthiocholine iodide as substrate preincubated for 30 mins followed by substrate addition and measured after 30 mins by DTNB based Ellman's method
Sequence of Acetylcholinesterase (P22303 whole entry, the tested form may be a part): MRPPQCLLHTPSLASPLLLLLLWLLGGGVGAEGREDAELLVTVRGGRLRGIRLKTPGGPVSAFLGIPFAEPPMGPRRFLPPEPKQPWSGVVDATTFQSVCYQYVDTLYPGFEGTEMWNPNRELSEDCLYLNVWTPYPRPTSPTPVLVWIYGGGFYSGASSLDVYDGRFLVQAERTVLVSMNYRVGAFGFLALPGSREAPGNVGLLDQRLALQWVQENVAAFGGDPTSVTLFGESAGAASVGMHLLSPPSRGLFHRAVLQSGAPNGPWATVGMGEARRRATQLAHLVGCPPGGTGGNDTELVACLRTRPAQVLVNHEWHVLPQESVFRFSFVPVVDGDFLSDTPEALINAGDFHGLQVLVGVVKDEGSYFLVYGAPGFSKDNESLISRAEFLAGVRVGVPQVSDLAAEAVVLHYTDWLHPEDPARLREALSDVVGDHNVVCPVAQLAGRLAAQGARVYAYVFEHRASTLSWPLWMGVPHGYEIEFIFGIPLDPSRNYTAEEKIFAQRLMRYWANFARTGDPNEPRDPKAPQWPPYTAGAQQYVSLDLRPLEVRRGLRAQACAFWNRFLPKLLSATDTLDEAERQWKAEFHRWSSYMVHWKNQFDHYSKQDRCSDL

[1] = biological target: Amyloid-beta precursor protein (Homo sapiens) (UniProt P05067); experiment: Inhibition of amyloid beta (1 to 42 residues) (unknown origin) aggregation assessed as reduction in massive oligomers measured after 3 days by AFM analysis; conditions: time 3.0 day
Sequence of Amyloid-beta precursor protein (Homo sapiens) (P05067 whole entry, the tested form may be a part): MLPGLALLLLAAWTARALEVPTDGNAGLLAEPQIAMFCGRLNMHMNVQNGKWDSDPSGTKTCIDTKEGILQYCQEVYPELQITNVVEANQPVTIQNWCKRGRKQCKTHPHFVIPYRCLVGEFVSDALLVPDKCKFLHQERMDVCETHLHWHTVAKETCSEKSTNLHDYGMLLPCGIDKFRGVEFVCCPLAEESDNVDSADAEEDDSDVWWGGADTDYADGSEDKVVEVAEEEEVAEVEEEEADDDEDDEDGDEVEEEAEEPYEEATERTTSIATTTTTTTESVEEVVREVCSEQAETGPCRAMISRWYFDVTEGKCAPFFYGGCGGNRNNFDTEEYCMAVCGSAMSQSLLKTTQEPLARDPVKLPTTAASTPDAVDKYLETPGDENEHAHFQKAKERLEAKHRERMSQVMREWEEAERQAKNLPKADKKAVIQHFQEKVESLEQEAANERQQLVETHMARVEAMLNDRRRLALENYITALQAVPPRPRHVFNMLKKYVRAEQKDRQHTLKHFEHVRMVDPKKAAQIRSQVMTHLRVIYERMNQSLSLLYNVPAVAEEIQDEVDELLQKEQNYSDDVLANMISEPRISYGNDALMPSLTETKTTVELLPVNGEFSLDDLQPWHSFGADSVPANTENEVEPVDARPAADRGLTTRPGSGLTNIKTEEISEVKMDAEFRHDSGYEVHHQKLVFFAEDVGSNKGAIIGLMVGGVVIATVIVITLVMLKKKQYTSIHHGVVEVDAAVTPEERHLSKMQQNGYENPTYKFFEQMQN

[2] = biological target: Amyloid-beta precursor protein (Homo sapiens) (UniProt P05067); experiment: Inhibition of amyloid beta (1 to 42 residues) (unknown origin) aggregation assessed as reduction in fibrils measured after 3 days by AFM analysis; conditions: time 3.0 day
[3] = Acute toxicity in female Wistar rat assessed as signs of toxicity at 100 to 500 mg/kg, po measured after 14 days; assay type: organism-based; conditions: in vivo, 336 h, dose 100-500 mg/kg, time 14 day
[4] = Acute toxicity in female Wistar rat assessed as histopathological changes in liver at 100 to 500 mg/kg, po measured after 14 days; assay type: organism-based; conditions: in vivo, 336 h, dose 100-500 mg/kg, time 14 day
[5] = Acute toxicity in female Wistar rat assessed as histopathological changes in brain at 100 to 500 mg/kg, po measured after 14 days; assay type: organism-based; conditions: in vivo, 336 h, dose 100-500 mg/kg, time 14 day
Rattus norvegicus [6] = experiment: (§1) Reversal of amyloid beta (1 to 42 residues) induced cognitive impairment in female Wistar rat assessed as reduction in amyloid beta level in brain hippocampus at 20 mg/kg, po pretreated with amyloid beta for 7 days followed by compound administration and measured after 5 days by immunohistochemistry analysis; assay type: functional, organism-based; conditions: time 5.0 day
Rattus norvegicus [7] = experiment: as §1, with “in BACE-1” for “in amyloid beta”; assay type: functional, organism-based; conditions: time 5.0 day
[8] = Toxicity in Drosophila melanogaster Oregon R-positive assessed as reduction in eclosed flies at pupal stage at 100 uM measured until 15 days relative to control; set-up: scale not given: the % may be the effect or the level left; conditions: 360 h, time 15 day
[9] = Toxicity in Drosophila melanogaster Oregon R-positive assessed as reduction in eclosed flies at embryonic stage at 200 uM measured until 15 days relative to control; set-up: scale not given: the % may be the effect or the level left; conditions: 360 h, time 15 day
Drosophila melanogaster [10] = experiment: Reversal of ey-GAL4 driven UAS-amyloid beta induced cellular toxicity in Drosophila melanogaster Oregon R-positive model assessed as increase in cell viability in gut at 5 uM by MTT assay relative to control; assay type: functional
Drosophila melanogaster [11] = experiment: Reversal of ey-GAL4 driven UAS-amyloid beta induced cellular toxicity in Drosophila melanogaster Oregon R-positive model assessed as increase in rescued eye phenotype at 10 uM by trinocular stereo-zoom microscope relative to control; assay type: functional
Drosophila melanogaster [12] = experiment: Reversal of ey-GAL4 driven UAS-amyloid beta induced cellular toxicity in Drosophila melanogaster Oregon R-positive model assessed as reduction in severe ommatidial death eye phenotype at 15 uM by trinocular stereo-zoom microscope relative to control; assay type: functional; set-up: scale not given: the % may be the effect or the level left
Drosophila melanogaster [13] = experiment: Reversal of ey-GAL4 driven UAS-amyloid beta induced cellular toxicity in Drosophila melanogaster Oregon R-positive model assessed as reduction in mild ommatidial death eye phenotype at 10 uM by trinocular stereo-zoom microscope relative to control; assay type: functional; set-up: scale not given: the % may be the effect or the level left
[14] = Drug concentration in male Wistar rat brain homogenate at 10 mg/kg, po measured after 4 days; assay type: ADME, organism-based; conditions: time 4 day, read-out: Ct
[15] = Tmax in male Wistar rat at 20 mg/kg, po measured upto 32 hrs by high-performance liquid chromatography; assay type: ADME, organism-based; conditions: in vivo

For COc1cc2ncnc(N3CCN(Cc4ccccc4)CC3)c2cc1OC, the IC50 (Acetylcholinesterase) was 283 nM, the inhibition [1] was “Active” and the inhibition [2] was “Active”. For the same compound, the Activity [3] was “Non-Toxic”, the Activity [4] was “Non-Toxic” and the Activity [5] was “Non-Toxic”. The Activity (Rattus norvegicus [6]) was “Active”, the Activity (Rattus norvegicus [7]) was “Active” and the Activity [8] was 65%. For the same compound, the Activity [9] was 100%, the Activity (Drosophila melanogaster [10]) was 82% and the Activity (Drosophila melanogaster [11]) was 36.6%. For the same compound, the Activity (Drosophila melanogaster [12]) was 20%, the Activity (Drosophila melanogaster [13]) was 37% and the concentration at 96 h [14] was 633 ng/mL. For the same compound, the Tmax [15] was 3 h.
